Laboratory results: US8349883B2, “Hydroxamate-based inhibitors of deacetylases B” (Novartis AG, priority 2008, dated 2013)

Columns and labels:
HDAC-1 = biological target: T1, HDAC-1 (Homo sapiens, UniProt Q13547); assay: HDAC inhibition assay (purified GST-HDAC protein); assay type: biochemical
T1 construct: made in house; host or cells: Sf9 or Sf21 insect cells (baculovirus, donor vector pFB-GSTX3)
Source text: The baculovirus donor vector pFB-GSTX3 was used to generate a recombinant baculovirus that can express the HDAC polypeptide. Transfer vectors containing the HDAC coding region were transfected into the DH10Bac cell line (GIBCO) and plated on selective agar plates. Colonies without insertion of the fusion sequence into the viral genome (carried by the bacteria) were blue. Single, white colonies were picked and viral DNAs (bacmid) were isolated from the bacteria by standard plasmid purification procedures. Sf9 cells or Sf21 (American Type Culture Collection) cells were then transfected in […] flasks with the viral DNA using Cellfectin reagent.
Virus-containing media was collected from the transfected cell culture and used for infection to increase its titer. Virus-containing media obtained after two rounds of infection was used for large-scale protein expression. For large-scale protein expression 100 cm^2 round tissue culture plates were seeded with 5×10^7 cells/plate and infected with 1 mL of virus-containing media (at an approximately MOI of 5). After 3 days, the cells were scraped off the plate and centrifuged at 500 rpm for 5 minutes. Cell pellets from 10-20, 100 cm^2 plates, were re-suspended in 50 mL of ice-cold lysis buffer (25 mM tris-HCl, pH 7.5, 2 mM EDTA, 1% NP-40, 1 mM DTT, 1 mM P MSF). The cells were stirred on ice for 15 minutes and then centrifuged at 5,000 rpms for 20 minutes.
The centrifuged cell lysate was loaded onto a 2 mL glutathione-sepharose column (Pharmacia) and was washed thrice with 10 mL of 25 mM tris-HCl, pH 7.5, 2 mM EDTA, 1 mM DTT, 200 mM NaCl. The GST-tagged proteins were then eluted by 10 applications (1 mL each) of 25 mM tris-HCl, pH 7.5, 10 mM reduced-glutathione, 100 mM NaCl, 1 mM DTT, 10% glycerol and stored at −70° C.
HDAC assays with purified GST-HDAC protein were carried out in a final volume of 30 μL containing 15 ng of GST-HDAC protein, 20 mM tris-HCl, pH 7.5, 1 mM MnCl2, 10 mM MgCl2, 1 mM DTT, 3 μg/mL poly(Glu,Tyr) 4:1, 1% DMSO, 2.0 μM ATP (γ-[^33P]-ATP 0.1 μCi). The activity was assayed in the presence or absence of inhibitors. The assay was carried out in 96-well plates at ambient temperature for 15 minutes under conditions described below and terminated by the addition of 20 μL of 125 mM EDTA. Subsequently, 40 μL of the reaction mixture were transferred onto EMMOBILON-PVDF membrane (Millipore) previously soaked for 5 minutes with methanol, rinsed with water, then soaked for 5 minutes with 0.5% H3PO4 and mounted on vacuum manifold with disconnected vacuum source. After spotting all samples, a vacuum was connected and each well rinsed with 200 μL 0.5% H3PO4. Membranes were removed and washed four times on a shaker with 1.0% H3PO4, once with ethanol. Membranes were counted after drying at ambient temperature, mounting in Packard TopCount 96-well frame, and addition of 10 μL/well of MICROSCINT™ (Packard). IC50 values were calculated by linear regression analysis of the percentage inhibition of each compound in duplicate, at 4 concentrations (usually 0.01, 0.1, 1 and 10 μM).
• Input: 3×4 μL stopped assay on IMMOBILON membrane, not washed • Background (3 wells): assay with H2O instead of enzyme • Positive control (4 wells): 3% DMSO instead of compound • Bath control (1 well): no reaction mix
IC50 values were calculated by logarithmic regression analysis of the percentage inhibition of each compound at 4 concentrations (usually 3- or 10-fold dilution series starting at 10 μM). In each experiment, the actual inhibition by reference compound was used for normalization of IC50 values to the basis of an average value of the reference inhibitor: Normalized IC50=measured IC50 average ref IC50/measured ref IC50
Example: Reference inhibitor in experiment 0.4 μM, average 0.3 μM, Test compound in experiment 1.0 μM, normalization: 0.3/0.4=0.75 μM
For example, known HDAC inhibitors or a synthetic derivative thereof may be used as reference compounds.

HCT116 = HCT116 IC50; assay type: cell-based; details: Homo sapiens, HCT-116

T1 sequence (Q13547 whole entry, species assumed): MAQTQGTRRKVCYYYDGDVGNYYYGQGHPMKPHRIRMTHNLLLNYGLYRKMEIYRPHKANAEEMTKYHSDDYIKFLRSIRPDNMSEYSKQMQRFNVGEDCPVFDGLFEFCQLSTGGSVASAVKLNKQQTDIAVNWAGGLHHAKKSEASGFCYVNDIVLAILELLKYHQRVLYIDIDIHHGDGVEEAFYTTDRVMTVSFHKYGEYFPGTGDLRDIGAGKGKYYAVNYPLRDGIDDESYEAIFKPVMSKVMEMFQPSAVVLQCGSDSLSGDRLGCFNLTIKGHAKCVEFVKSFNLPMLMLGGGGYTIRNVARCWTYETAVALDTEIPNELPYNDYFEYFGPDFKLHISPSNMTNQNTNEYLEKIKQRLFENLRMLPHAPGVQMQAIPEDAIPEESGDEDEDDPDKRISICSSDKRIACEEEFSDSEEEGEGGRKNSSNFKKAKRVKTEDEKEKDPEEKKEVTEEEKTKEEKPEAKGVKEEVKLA

Row | Compound | IC50 (HDAC-1) [nM] | IC50 (HCT116) [nM]
1 | O=C(/C=C/c1ccc([C@@H]2CCCN2CCc2c(-c3cnccn3)nn3ccccc23)cc1)NO [Compound 49, (E)-N-Hydroxy-3-(4-{(S)-1-[2-(2-pyrazin-2-yl-pyrazolo[1,5-a]pyridin-3-yl)-ethyl]-pyrrolidin-2-yl}-phenyl)-acrylamide] | 3 | 3
2 | O=C(/C=C/c1ccc([C@@H]2CCCN2CCc2c(-c3cccnc3)nn3ccccc23)cc1)NO [Compound 50, (E)-N-Hydroxy-3-(4-{(S)-1-[2-(2-pyridin-3-yl-pyrazolo[1,5-a]pyridin-3-yl)-ethyl]-pyrrolidin-2-yl}-phenyl)-acrylamide] | 1 | 0.4
3 | O=C(/C=C/c1ccc([C@@H]2CCCN2CCc2c[nH]c3ncccc23)cc1)NO [Compound 51, (E)-N-Hydroxy-3-(4-{(S)-1-[2-(1H-pyrrolo[2,3-b]pyridin-3-yl)-ethyl]-pyrrolidin-2-yl}-phenyl)-acrylamide] | 1.2 | 4
4 | CC(C)(C)c1[nH]c2ncccc2c1CCN1CCC[C@H]1c1ccc(/C=C/C(=O)NO)cc1 [Compound 52, (E)-3-(4-{(S)-1-[2-(2-tert-Butyl-1H-pyrrolo[2,3-b]pyridin-3-yl)-ethyl]-pyrrolidin-2-yl}-phenyl)-N-hydroxy-acrylamide] | 2.7 | 4.3
5 | O=C(/C=C/c1ccc(C2CCCN2CCc2cnc3ccccn23)cc1)NO (stereo not drawn) [Compound 53, (E)-N-Hydroxy-3-{4-[1-(2-imidazo[1,2-a]pyridin-3-yl-ethyl)-pyrrolidin-2-yl]-phenyl}-acrylamide] | 0.9 | 1
6 | Cc1nc2ccccn2c1CCN1CCC[C@H]1c1ccc(/C=C/C(=O)NO)cc1 [Compound 54, (E)-N-Hydroxy-3-(4-{(S)-1-[2-(2-methyl-imidazo[1,2-a]pyridin-3-yl)-ethyl]-pyrrolidin-2-yl}-phenyl)-acrylamide] | 3 | 4
7 | Cc1nn(-c2ccccc2)c(C)c1CCN1CCC[C@H]1c1ccc(/C=C/C(=O)NO)cc1 [Compound 55, (E)-3-(4-{(S)-1-[2-(3,5-Dimethyl-1-phenyl-1H-pyrazol-4-yl)-ethyl]-pyrrolidin-2-yl}-phenyl)-N-hydroxy-acrylamide] | 2 | 1.1
8 | Cc1noc(-c2ccccc2)c1CCN1CCC[C@H]1c1ccc(/C=C/C(=O)NO)cc1 [Compound 56, (E)-N-Hydroxy-3-(4-{(S)-1-[2-(3-methyl-5-phenyl-isoxazol-4-yl)-ethyl]-pyrrolidin-2-yl}-phenyl)-acrylamide] | 1.7 | 5
9 | Cc1oc(-c2ccccc2)nc1CCN1CCC[C@H]1c1ccc(/C=C/C(=O)NO)cc1 [Compound 57, (E)-N-Hydroxy-3-(4-{(S)-1-[2-(5-methyl-2-phenyl-oxazol-4-yl)-ethyl]-pyrrolidin-2-yl}-phenyl)-acrylamide] | 1.4 | 1
10 | O=C(/C=C/c1ccc([C@@H]2CCCN2CCc2cn[nH]c2)cc1)NO [Compound 58, (E)-N-Hydroxy-3-(4-{(S)-1-[2-(1H-pyrazol-4-yl)-ethyl]-pyrrolidin-2-yl}-phenyl)-acrylamide] | 7 | 36
11 | Cn1cc(CCN2CCC[C@H]2c2ccc(/C=C/C(=O)NO)cc2)cn1 [Compound 59, (E)-N-Hydroxy-3-(4-{(S)-1-[2-(1-methyl-1H-pyrazol-4-yl)-ethyl]-pyrrolidin-2-yl}-phenyl)-acrylamide] | 8 | 35
12 | Cc1nn(C)c(C)c1CCN1CCC[C@H]1c1ccc(/C=C/C(=O)NO)cc1 [Compound 60, (E)-N-Hydroxy-3-(4-{(S)-1-[2-(1,3,5-trimethyl-1H-pyrazol-4-yl)-ethyl]-pyrrolidin-2-yl}-phenyl)-acrylamide] | 1.8 | 4
13 | Cc1nn(C(C)(C)C)c(C)c1CCN1CCC[C@H]1c1ccc(/C=C/C(=O)NO)cc1 [Compound 61, (E)-3-(4-{(S)-1-[2-(1-tert-Butyl-3,5-dimethyl-1H-pyrazol-4-yl)-ethyl]-pyrrolidin-2-yl}-phenyl)-N-hydroxy-acrylamide] | 7 | 8
14 | Cc1nn(CC2CC2)c(C)c1CCN1CCC[C@H]1c1ccc(/C=C/C(=O)NO)cc1 [Compound 62, (E)-3-(4-{(S)-1-[2-(1-Cyclopropylmethyl-3,5-dimethyl-1H-pyrazol-4-yl)-ethyl]-pyrrolidin-2-yl}-phenyl)-N-hydroxy-acrylamide] | 2 | 2
15 | O=C(/C=C/c1ccc([C@@H]2CCCN2CCn2cccn2)cc1)NO [Compound 63, (E)-N-Hydroxy-3-{4-[(S)-1-(2-pyrazol-1-yl-ethyl)-pyrrolidin-2-yl]-phenyl}-acrylamide] | 42 | 180
16 | Cc1cnn(CCN2CCC[C@H]2c2ccc(/C=C/C(=O)NO)cc2)c1 [Compound 64, (E)-N-Hydroxy-3-(4-{(S)-1-[2-(4-methyl-pyrazol-1-yl)-ethyl]-pyrrolidin-2-yl}-phenyl)-acrylamide] | 62 | 190
17 | O=C(/C=C/c1ccc([C@@H]2CCCN2CCn2cc(Br)cn2)cc1)NO [Compound 65, (E)-3-(4-{(S)-1-[2-(4-Bromo-pyrazol-1-yl)-ethyl]-pyrrolidin-2-yl}-phenyl)-N-hydroxy-acrylamide] | 35 | 180
18 | Cc1cc(C)n(CCN2CCC[C@H]2c2ccc(/C=C/C(=O)NO)cc2)n1 [Compound 66, (E)-3-(4-{(S)-1-[2-(3,5-Dimethyl-pyrazol-1-yl)-ethyl]-pyrrolidin-2-yl}-phenyl)-N-hydroxy-acrylamide] | 28 | 61
19 | Cc1nn(CCN2CCC[C@H]2c2ccc(/C=C/C(=O)NO)cc2)c(C)c1C [Compound 67, (E)-N-Hydroxy-3-(4-{1-[2-(3,4,5-trimethyl-pyrazol-1-yl)-ethyl]-pyrrolidin-2-yl}-phenyl)-acrylamide] | 17 | 39
20 | Cc1c(CC(C)(C)C)nn(CCN2CCC[C@H]2c2ccc(/C=C/C(=O)NO)cc2)c1O [Compound 68, (E)-3-[4-((S)-1-{2-[3-(2,2-Dimethyl-propyl)-5-hydroxy-4-methyl-pyrazol-1-yl]-ethyl}-pyrrolidin-2-yl)-phenyl]-N-hydroxy-acrylamide] | 40 | 160
21 | Cc1nn(CCN2CCC[C@H]2c2ccc(/C=C/C(=O)NO)cc2)c(C)c1Br [Compound 69, (E)-3-(4-{(S)-1-[2-(4-Bromo-3,5-dimethyl-pyrazol-1-yl)-ethyl]-pyrrolidin-2-yl}-phenyl)-N-hydroxy-acrylamide] | 25 | 170
22 | Cc1nn(CCN2CCC[C@H]2c2ccc(/C=C/C(=O)NO)cc2)cc1Br [Compound 70, (E)-3-(4-{(S)-1-[2-(4-Bromo-3-methyl-pyrazol-1-yl)-ethyl]-pyrrolidin-2-yl}-phenyl)-N-hydroxy-acrylamide] | 30 | 96
23 | Cc1ccn(CCN2CCC[C@H]2c2ccc(/C=C/C(=O)NO)cc2)n1 [Compound 71, (E)-N-Hydroxy-3-(4-{(S)-1-[2-(3-methyl-pyrazol-1-yl)-ethyl]-pyrrolidin-2-yl}-phenyl)-acrylamide] | 55 | 110
24 | Cc1ccnn1CCN1CCC[C@H]1c1ccc(/C=C/C(=O)NO)cc1 [Compound 72, (E)-N-Hydroxy-3-(4-{(S)-1-[2-(5-methyl-pyrazol-1-yl)-ethyl]-pyrrolidin-2-yl}-phenyl)-acrylamide] | 19 | 31
